Residues, ends and D or L forms follow the SMILES beside them.
Assay: Ocular tissue distribution at equimolar concentration, eye dropping or intravitreal injection (Example 5), ELISA
Type: in vivo, C57BL/6J mice
Source text: This example provides an ocular tissue distribution comparison experiment of the polypeptide eye drops (AJ007 eye drops) in Example 2 with an equimolar concentration of the multifunctional fusion polypeptide VI (HM-1), a multifunctional fusion polypeptide VI preparation (HM-1 preparation, with a polypeptide being HM-1 and a formulation of other excipients being the same as the AJ007 eye drops), a fusion polypeptide AJ007 preparation (TAT-HM-1, with a polypeptide being AJ007 and pure water as a vehicle) after eye dropping, and the multifunctional fusion polypeptide VI (HM-1) after intravitreal injection, which is specifically described below.
Animal grouping: […] C57BL/6J mice were randomly divided into a total of 7 time point groups, including 0 h, 10 min, 1 h, 3 h, 7 h, 12 h, and 24 h, with 2 mice in each group.
Experimental process: All the mice in the eye drop administration groups were administered bilateral eye drops 1 time, with 5 μL of a corresponding drug solution dropped into each eye, while 5 μL of a corresponding drug solution was injected into both eyes in the HM-1 intravitreal injection group. At the 7 time points of 0 h, 10 min, 1 h, 3 h, 7 h, 12 h, and 24 h after the completion of administration, the mice in the corresponding groups were respectively subjected to eyeball removal and blood collection, the collected whole blood was immediately centrifuged at 6,000 rpm for 5 minutes, and then, a supernatant was sucked and stored as a sample to be tested. Additionally, 3 tissue sites, namely the vitreous body, the retina, and the RPE/choroid complex, were isolated from an eyeball under a stereomicroscope, into which PBS was added at 1:10 for dilution, followed by grinding and centrifugation at 12,000 rpm for 5 minutes. A supernatant was sucked to serve as a sample to be tested. Subsequently, the concentration of HM-1 or fusion polypeptide AJ007 in each tissue was detected by an ELISA method.

Question: For C[C@H](NC(=O)CNC(=O)[C@H](CCCNC(=N)N)NC(=O)[C@H](CCCNC(=N)N)NC(=O)[C@H](CCCNC(=N)N)NC(=O)[C@H](CCCNC(=N)N)NC(=O)[C@H](CCC(N)=O)NC(=O)[C@H](CCCNC(=N)N)NC(=O)[C@H](CCCNC(=N)N)NC(=O)[C@H](CCCCN)NC(=O)[C@H](CCCCN)NC(=O)[C@H](CCCNC(=N)N)NC(=O)CNC(=O)[C@@H](N)Cc1ccc(O)cc1)C(=O)N[C@@H](CC(=O)O)C(=O)N[C@@H](CCCNC(=N)N)C(=O)N[C@@H](C)C(=O)NCC(=O)NCC(=O)NCC(=O)NCC(=O)N[C@@H](CCCNC(=N)N)C(=O)NCC(=O)N[C@@H](CC(=O)O)C(=O)O [AJ007] (H-YGRKKRRQRRRRGADRAGGGGRGD-OH; N-terminus and C-terminus assumed), which “maintenance time at the RPE/choroid complex” value (eye dropping) is on record?
Answer: The value was “shorter”.

Question: Which results are given for C[C@H](NC(=O)CNC(=O)[C@@H](N)CCCNC(=N)N)C(=O)N[C@@H](CC(=O)O)C(=O)N[C@@H](CCCNC(=N)N)C(=O)N[C@@H](C)C(=O)NCC(=O)NCC(=O)NCC(=O)NCC(=O)N[C@@H](CCCNC(=N)N)C(=O)NCC(=O)N[C@@H](CC(=O)O)C(=O)O [HM-1, Arg-Gly-Ala-Asp-Arg-Ala-Gly-Gly-Gly-Gly-Arg-Gly-Asp] (H-RGADRAGGGGRGD-OH; N-terminus and C-terminus assumed)?
Answer: maintenance time at the RPE/choroid complex (eye dropping): very short; maintenance time at the RPE/choroid complex (intravitreal injection): shorter
